Assay results published in patent US6949542B2, “Dihydro-benzo[b][1,4]diazepin-2-one derivatives” (Hoffman-La Roche Inc., priority 2002, dated 2005).
Read-outs that look alike come from different tables or passages of the source.

Assays:
rat mGlu2 receptor = target: T1, rat mGlu2 receptor (Rattus norvegicus, UniProt P31421); assay: [3H]-LY354740 binding on mGlu2 transfected CHO cell membranes
T1 construct: expressed in transfected cells; vector pcD1mGR2

[1] = inhibition of 10 nM [3H]-LY354740 binding, mGlu2 transfected CHO cell membranes, room temperature, 1 hour, read-out: Ki mGlu2

T1 sequence (P31421 19-872): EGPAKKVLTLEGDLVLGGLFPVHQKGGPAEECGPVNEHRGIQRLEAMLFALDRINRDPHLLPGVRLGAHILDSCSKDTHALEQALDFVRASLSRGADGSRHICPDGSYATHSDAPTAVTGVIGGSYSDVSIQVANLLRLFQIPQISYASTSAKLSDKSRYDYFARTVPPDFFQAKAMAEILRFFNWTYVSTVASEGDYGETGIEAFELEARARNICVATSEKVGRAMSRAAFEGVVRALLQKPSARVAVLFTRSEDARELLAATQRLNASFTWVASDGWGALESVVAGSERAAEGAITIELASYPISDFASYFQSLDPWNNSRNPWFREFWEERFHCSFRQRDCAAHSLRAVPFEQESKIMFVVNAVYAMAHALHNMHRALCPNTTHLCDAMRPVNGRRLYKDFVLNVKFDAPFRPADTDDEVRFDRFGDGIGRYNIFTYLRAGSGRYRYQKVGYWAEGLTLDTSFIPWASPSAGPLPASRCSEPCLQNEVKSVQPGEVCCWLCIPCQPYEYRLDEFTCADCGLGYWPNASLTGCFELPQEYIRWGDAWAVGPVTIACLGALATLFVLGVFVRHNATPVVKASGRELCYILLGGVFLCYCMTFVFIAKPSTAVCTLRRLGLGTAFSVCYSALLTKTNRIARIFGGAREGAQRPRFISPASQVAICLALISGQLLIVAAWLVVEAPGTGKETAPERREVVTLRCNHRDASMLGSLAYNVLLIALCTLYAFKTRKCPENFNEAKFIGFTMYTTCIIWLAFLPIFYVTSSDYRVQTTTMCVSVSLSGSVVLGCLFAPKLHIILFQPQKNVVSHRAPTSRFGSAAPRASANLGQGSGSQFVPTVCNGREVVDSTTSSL

Row | Structure (SMILES) | Ki (rat mGlu2 receptor; [1]) [µM] | melting point | Ki (rat mGlu2 receptor) [µM]
1 | O=C1CC(c2cccc(-c3cncnc3)c2)=Nc2ccc(-c3ccccc3F)cc2N1 [Example 105, 8-(2-Fluoro-phenyl)-4-(3-pyrimidin-5-yl-phenyl)-1,3-dihydro-benzo[b][1,4]diazepin-2-one] | 0.0062 | 223 °C | –
2 | Cc1cc(-c2cccc(C3=Nc4cc(N(C)CC(C)C)c(Cl)cc4NC(=O)C3)c2)cc(C)n1 [Example 410, 8-Chloro-4-[3-(2,6-dimethyl-pyridin-4-yl)-phenyl]-7-(isobutyl-methyl-amino)-1,3-dihydro-benzo[b][1,4]diazepin-2-one] | 0.00325 | 229 °C | –
3 | Cc1cc(-c2cccc(C3=Nc4cc(C)c(Cl)cc4NC(=O)C3)c2)nc(N2CCOCC2)n1 [Example 327, 8-Chloro-7-methyl-4-[3-(6-methyl-2-morpholin-4-yl-pyrimidin-4-yl)-phenyl]-1,3-dihydro-benzo[b][1,4]diazepin-2-one] | 0.012 | 252 to 256 °C | –
4 | Cc1cc2c(cc1C(F)(F)F)NC(=O)CC(c1cccc(-c3ccnc(N4CCOCC4)c3)c1)=N2 [Example 387, 7-Methyl-4-[3-(2-morpholin-4-yl-pyridin-4-yl)-phenyl]-8-trifluoromethyl-1,3-dihydro-benzo[b][1,4]diazepin-2-one] | – | 240 to 242 °C | 0.0145
5 | O=C1CC(c2cccc(-c3cncnc3)c2)=Nc2cc(Cl)c(Cl)cc2N1 [Example 97, 7,8-Dichloro-4-(3-pyrimidin-5-yl-phenyl)-1,3-dihydro-benzo[b][1,4]diazepin-2-one] | – | 272 °C | 0.0107
6 | O=C1CC(c2cccc(-c3ccnc(N4CCCC4)c3)c2)=Nc2cc(OCC(F)(F)F)c(C(F)(F)F)cc2N1 [Example 391, 4-[3-(2-Pyrrolidin-1-yl-pyridin-4-yl)-phenyl]-7-(2,2,2-trifluoro-ethoxy)-8-trifluoromethyl-1,3-dihydro-benzo[b][1,4]diazepin-2-one] | 0.0079 | 165 °C | –
7 | COc1ccc(-c2cccc(C3=Nc4ccc(-c5ccccc5F)cc4NC(=O)C3)c2)nn1 [Example 41, 8-(2-Fluoro-phenyl)-4-[3-(6-methoxy-pyridazin-3-yl)-phenyl]-1,3-dihydro-benzo[b][1,4]diazepin-2-one] | 0.0245 | 220 °C | –
8 | Cc1cc2c(cc1Cl)NC(=O)CC(c1cccc(-c3cncnc3)c1)=N2 [Example 104, 8-Chloro-7-methyl-4-(3-pyrimidin-5-yl-phenyl)-1,3-dihydro-benzo[b][1,4]diazepin-2-one] | 0.008 | 248 °C | –
9 | Cc1cc(-c2cccc(C3=Nc4cc(Cl)c(Cl)cc4NC(=O)C3)c2)cc(C)[n+]1[O-] [Example 376, 7,8-Dichloro-4-[3-(2,6-dimethyl-1-oxy-pyridin-4-yl)-phenyl]-1,3-dihydro-benzo[b][1,4]diazepin-2-one] | 0.0165 | 225 °C | –
10 | Cc1ccc(-c2cccc(C3=Nc4ccc(-c5ccccc5F)cc4NC(=O)C3)c2)nn1 [Example 16, 8-(2-Fluoro-phenyl)-4-[3-(6-methyl-pyridazin-3-yl)-phenyl]-1,3-dihydro-benzo[b][1,4]diazepin-2-one] | 0.0165 | 225 °C | –
11 | Cc1cc2c(cc1Cl)NC(=O)CC(c1cccc(-c3ccnnc3)c1)=N2 [Example 48, 8-Chloro-7-methyl-4-(3-pyridazin-4-yl-phenyl)-1,3-dihydro-benzo[b][1,4]diazepin-2-one] | 0.00935 | 240 °C (dec.) | –

Further lines, with some results ahead:

Row | Ki (rat mGlu2 receptor; [1]) [µM] | melting point | Structure (SMILES) | Ki (rat mGlu2 receptor) [µM]
12 | 0.00129 | 225 °C | Cc1cc(-c2cccc(C3=Nc4cc(N(C)C)c(C(F)(F)F)cc4NC(=O)C3)c2)ccn1 [Example 78, 7-Dimethylamino-4-[3-(2-methyl-pyridin-4-yl)-phenyl]-8-trifluoromethyl-1,3-dihydro benzo[b][1,4]diazepin-2-one] | –
13 | 0.0055 | 215 to 218 °C | Cc1ccc(-c2cccc(C3=Nc4ccc(C(F)(F)F)cc4NC(=O)C3)c2)cn1 [Example 9, 4-[3-(6-Methyl-pyridin-3-yl)-phenyl]-8-trifluoromethyl-1,3-dihydro-benzo[b][1,4]diazepin-2-one] | –
14 | 0.0036 | 202 °C | Cc1cc(-c2cccc(C3=Nc4cc(OCC(F)(F)F)c(C(F)(F)F)cc4NC(=O)C3)c2)c(C)cn1 [Example 138, 4-[3-(2,5-Dimethyl-pyridin-4-yl)-phenyl]-7-(2,2,2-trifluoro-ethoxy)-8-trifluoromethyl-1,3-dihydro-benzo[b][1,4]diazepin-2-one] | –
15 | 0.019 | 198 °C | CC(C)CNc1cc2c(cc1C(F)(F)F)NC(=O)CC(c1cccc(-c3ccncc3)c1)=N2 [Example 63, 7-Isobutylamino-4-(3-pyridin-4-yl-phenyl)-8-trifluoromethyl-1,3-dihydro-benzo[b][1,4]diazepin-2-one] | –
16 | 0.0031 | 233 °C | Cc1cncc(-c2cccc(C3=Nc4cc(C)c(C(F)(F)F)cc4NC(=O)C3)c2)n1 [Example 129, 7-Methyl-4-[3-(6-methyl-pyrazin-2-yl)-phenyl]-8-trifluoromethyl-1,3-dihydro-benzo[b][1,4]diazepin-2-one] | –
17 | 0.01 | 156 °C | O=C1CC(c2cccc(-c3cccnc3)c2)=Nc2ccc(OCC(F)(F)F)cc2N1 [Example 197, 4-(3-Pyridin-3-yl-phenyl)-8-(2,2,2-trifluoro-ethoxy)-1,3-dihydro-benzo[b][1,4]diazepin-2-one] | –
18 | 0.0235 | 239 °C | O=C1CC(c2cccc(-c3ccccn3)c2)=Nc2cc(Cl)c(Cl)cc2N1 [Example 5, 7,8-Dichloro-4-(3-pyridin-2-yl-phenyl)-1,3-dihydro-benzo[b][1,4]diazepin-2-one] | –
19 | 0.0188 | 195 °C | Cc1cccc(-c2cccc(C3=Nc4cc(N(C)C)c(C(F)(F)F)cc4NC(=O)C3)c2)n1 [Example 160, 7-Dimethylamino-4-[3-(6-methyl-pyridin-2-yl)-phenyl]-8-trifluoromethyl-1,3-dihydro-benzo[b][1,4]diazepin-2-one] | –
20 | 0.0265 | 227 °C | CCOc1cc2c(cc1C(F)(F)F)NC(=O)CC(c1cccc(-c3cc[n+]([O-])c(C)c3)c1)=N2 [Example 359, 7-Ethoxy-4-[3-(2-methyl-1-oxy-pyridin-4-yl)-phenyl]-8-trifluoromethyl-1,3-dihydro-benzo[b][1,4]diazepin-2-one] | –
21 | 0.0169 | 195 °C | Cc1cc(C2CC2)ncc1-c1cccc(C2=Nc3cc(C)c(C(F)(F)F)cc3NC(=O)C2)c1 [Example 246, 4-[3-(6-Cyclopropyl-4-methyl-pyridin-3-yl)-phenyl]-7-methyl-8-trifluoromethyl-1,3-dihydro-benzo[b][1,4]diazepin-2-one] | –
22 | 0.0225 | 187 to 189 °C | Cc1ccc(-c2cccc(C3=Nc4cc(N(C)C)c(C(F)(F)F)cc4NC(=O)C3)c2)c(C)n1 [Example 47, 7-Dimethylamino-4-[3-(2,6-dimethyl-pyridin-3-yl)-phenyl]-8-trifluoromethyl-1,3-dihydro-benzo[b][1,4]diazepin-2-one] | –
23 | 0.006 | 229 to 230 °C | Cc1ncccc1-c1cccc(C2=Nc3cc(N(C)C)c(C(F)(F)F)cc3NC(=O)C2)c1 [Example 13, 7-Dimethylamino-4-[3-(2-methyl-pyridin-3-yl)-phenyl]-8-trifluoromethyl-1,3-dihydro-benzo[b][1,4]diazepin-2-one] | –
24 | 0.00155 | 221 to 222 °C (dec.) | O=C1CC(c2cccc(-c3ccncc3)c2)=Nc2cc(OCC(F)(F)F)c(C(F)(F)F)cc2N1 [Example 37, 4-(3-Pyridin-4-yl-phenyl)-7-(2,2,2-trifluoro-ethoxy)-8-trifluoromethyl-1,3-dihydro-benzo[b][1,4]diazepin-2-one] | –
